Experimental data: patent US7745120B2, “Cell culture and method for screening for a compound useful in the treatment or prevention of hepatic cirrhosis” (Industrial Technology Research Institute, priority 2004, dated 2010)
“Also recorded” adds a separate entry of the source.

What was measured:
Assay type in all cases: cell-based, human
[1] = system: Huh-7PALB-EGFP and immortalized HSC coculture; assay: methylene blue assay of cell activity in thioacetamide-damaged co-culture; conditions: interferon-α 1000, 5000, 10000 IU/ml added 3 hours before 100 mM thioacetamide; read after 24 hours; FIG. 11A
Protocol: Modified human HSCs and Huh-7 cells obtained from examples 1 and 6 were co-cultured via layer by layer culturing. Immortalized human HSCs were cultured in a 24-well culture plate, wherein each well was coated with extracellular matrix before use. The extracellular maxtrix used in the present example was Type I collagen or Matrigel. Six hours after the HSCs were attached, Huh-7 cells carrying albumin promoter (pLpLhyg-PAlb5/3-EGFP) (Huh-7PALB-EGFP) were subsequently cultured on the top of the attached HSCs.
One day later, 1000, 5000, 10000 IU/ml of interferon-α(F. Hoffman-La Roche, Ltd.) was added into cells respectively. Three hours later, 100 mM of thioacetamide (Sigma-Aldrich, Co.) was added to damage the cells. After 24 hours, methylene blue assay was conducted for analyzing the cell activity. In the meantime, the intensity of green fluorescence was determined by a fluorescence reader, and the result is shown in FIG. 11B.

[2] = system: immortalized hepatocyte THLE-2 and immortalized HSC coculture; assay: methylene blue assay of cell activity in thioacetamide-damaged co-culture of normal hepatocytes and HSCs; conditions: THLE-2 / HSC co-culture; interferon-α 1000, 5000, 10000 IU/ml added 3 hours before thioacetamide; read after another 24 hours; FIG. 11C
Protocol: To compare the cells in the present example with the normal hepatocytes and HSCs after drug treatment, immortalized human hepatocytes THLE-2 (ATCC NO: CRL-2706, normal primary hepatocytes immortalized by SV40 large T antigen gene) and untransfected human HSCs were co-cultured following procedures described as the above. After 24 hours, 1000,5000,10000 IU/ml of interferon-αwere added. Thioacetamide was applied to damage the cells after 3 hours. After another 24 hours, the cell activity was examined by methylene blue assay, and the result is shown as FIG. 11C. The result corresponds to that of the cell model for drug screening with pLpLhyg-PAlb5/3-EGFP transfected cells (FIG. 11A).

[3] = system: Huh-7PALB-EGFP and immortalized HSC coculture; assay: green fluorescence intensity (EGFP reporter under albumin promoter) by fluorescence reader in thioacetamide-damaged co-culture; conditions: interferon-α 1000, 5000, 10000 IU/ml added 3 hours before 100 mM thioacetamide; read after 24 hours; two independent experiments, average of 3 wells; FIG. 11B
Protocol: The fluorescence signal expressed from transfected cells of example 5 was observed under a fluorescence microscope, and the fluorescence intensity was analyzed by image analysis software. Fluorescence intensity of EGFP was determined by a fluorescence reader and an fluorescence ELISA reader. The excitation wavelength was 488 nm, and the emission wavelength was 510 nm while the green fluorescence from the EGFP gene was detected. When the red fluorescence from DsRed gene was detected, the excitation wavelength was 558 nm, and the emission wavelength was 583 nm. A flow cytometry (for example, FACSCalibur, Becton Dickinson, Inc.) can also be used to determine the intensity of fluorescence.
Modified human HSCs and Huh-7 cells obtained from examples 1 and 6 were co-cultured via layer by layer culturing. Immortalized human HSCs were cultured in a 24-well culture plate, wherein each well was coated with extracellular matrix before use. The extracellular maxtrix used in the present example was Type I collagen or Matrigel. […]
One day later, 1000, 5000, 10000 IU/ml of interferon-α(F. Hoffman-La Roche, Ltd.) was added into cells respectively. […] In the meantime, the intensity of green fluorescence was determined by a fluorescence reader, and the result is shown in FIG. 11B.

## interferon-α
[1]
  effect on damage from thioacetamide, methylene blue assay (cell activity): decreased the damage from thioacetamide; also recorded: decreased cell damaged by thioacetamide
[2]
  effect on damage from thioacetamide, methylene blue assay (cell activity): decreased the damage from thioacetamide
[3]
  effect on damage from thioacetamide, fluorescence intensity expressed by Huh-7PALB-EGFP: decreased the damage from thioacetamide; also recorded: decreased cell damaged by thioacetamide
